Results taken from PMC5390467, “Novel lead structures with both Plasmodium falciparum gametocytocidal and asexual blood stage activity identified from high throughput compound screening” (Malaria Journal, 2017).

What was measured:
[1] = test system: P. falciparum NF54 gametocytes; experiment: gametocyte viability assay (AlamarBlue); assay type: cell-based, Plasmodium falciparum; settings: for IC50: P. falciparum NF54 stage III-V gametocytes, 72 h, AlamarBlue, mean ± SD, n = 3; for Asexual/Gametocyte: ratio of asexual IC50 to gametocyte IC50
Method: (§1) Asexual parasites of P. falciparum strain NF54 were cultured as described previously. Briefly, parasites were maintained in RPMI 1640 medium containing 10% positive human serum + erythrocytes (5% haematocrit), 2.5% sodium bicarbonate and 11 µg/mL gentamicin at 37 °C with 5% CO2, 5% O2 and 90% N2. Gametocyte cultures were set up at 0.1% parasitaemia and on days 9–10 treated with 50 mM N-acetylglucosamine (NAG) to block further asexual growth. Stage III–V gametocytes were isolated by Percoll density gradient centrifugation on day 12 and returned to culture for 24 h before being used in the assay. At the time of the assay over 73% of the gametocytes were stage IV or V (Additional file 1). HepG2 cells (ATCC, cat. no. 77400) were cultured in 175-cm^2 tissue culture flasks with 30 ml growth medium at 37 °C in a 5% CO2 and 5% O2 humidified atmosphere. Growth medium was made with Dulbecco’s Modified Eagle Medium with 10% fetal bovine serum (FBS). Growth medium was replaced every other day and cells were passaged at 75% confluence.
Compounds from the Sytravon library (a retired Pharma screening collection that contains a diversity of novel small molecules, with an emphasis on medicinal chemistry-tractable scaffolds) were obtained as powder samples and dissolved in DMSO as […] stock solutions. Compound screening experiments were performed as previously described. In the primary screen, two concentrations for each compound were tested. No technical and biological replicates were involved. In the follow-up confirmation studies, three biological replicates were tested for each compound in both parasite assays. The positive control was 46 µM of Torin 2 and negative control was DMSO. Briefly, 2.5 μL/well incomplete medium was dispensed into each well of 1536-well plates using the Multidrop Combi followed by 23 nL compound transferring using the NX-TR Pintool (WAKO Scientific Solutions, San Diego, CA). Then, 2.5 μL/well of gametocytes was dispensed with a seeding density of 20,000 cells/well using the Multidrop Combi. The assay plates were incubated for 72 h at 37 °C with 5% CO2. After addition of 5 μL/well of 2X AlamarBlue dye (Life Technologies, cat. no. DAL1100), the plates were incubated for 24 h at 37 °C with 5% CO2 and then were read in a fluorescence detection mode (Ex = 525 nm, Em = 598 nm) on a ViewLux plate reader (PerkinElmer).

[2] = test system: P. falciparum NF54 asexual parasites; experiment: asexual parasite growth inhibition assay (SYBR Green); assay type: cell-based, Plasmodium falciparum; settings: 72 h, mean ± SD, n = 3
Method: as §1
Drug activity on asexual stage parasites was tested using a SYBR Green assay as described previously. Briefly, 2.5 μL/well complete culture medium was dispensed into each well of 1536-well plates using the Multidrop Combi followed by 23 nL compound transferring using the NX-TR Pintool. Parasites were diluted to 0.5% parasitaemia in complete culture medium with 2% haematocrit and drugs diluted in DMSO (≤0.5%). The pre-diluted parasites were dispensed into a 1536-well plate (2.5 μL/well). After 72 h incubation under the standard culture conditions, 5 μL/well of lysis buffer containing SYBR Green I was added to the parasite culture and incubated for 30 min at room temperature. The fluorescence of each well was measured in a fluorescence detection mode (Ex = 490 nm, Em = 520 nm) using a ViewLux plate reader (PerkinElmer).

HepG2 cells = experiment: HepG2 cytotoxicity assay (AlamarBlue); assay type: cell-based, human; settings: for HepG2, IC50 (dash = less than 25% cytotoxicity) / cytotoxicity at 46 µM / IC50: HepG2 cells, 72 h, AlamarBlue; for HepG2, IC50 (dash = less than 25% cytotoxicity) / cytotoxicity at 46 µM: up to 46 µM; for cytotoxicity at 46 µM: Homo sapiens, read-out: HepG2, IC50 (dash = less than 25% cytotoxicity); for IC50 / maximum response, HepG2 cytotoxicity: titration 0.001 to 46 µM; for IC50: mean ± SD, n = 3
Method: as §1
Drug activity on HepG2 was tested using an AlamarBlue assay as previously described. Briefly, 5 μL/well of HepG2 cells were dispensed with a seeding density of 1000 cells/well using the Multidrop Combi. 23 nL compound was transferred using the NX-TR Pintool. After 72 h incubation under the standard culture condition, 5 μL/well of 2X AlamarBlue dye was added to the cells, the plates were incubated for 2 h at 37 °C with 5% CO2 and then were read in a fluorescence detection mode (Ex = 525 nm, Em = 598 nm) on a ViewLux plate reader.

SMILES | IC50 [1] | IC50 [2] | IC50 ([1]; Plasmodium falciparum) | IC50 ([2]; Plasmodium falciparum) | ratio of IC50s, lower IC50 in gametocyte viability assay than in asexual parasite growth assay ([1]; asexual versus gametocyte) | Asexual/Gametocyte [1] | HepG2, IC50 (dash = less than 25% cytotoxicity) (HepG2 cells) | cytotoxicity at 46 µM (HepG2 cells) | IC50 (HepG2 cells) | maximum response, HepG2 cytotoxicity (HepG2 cells)
CC(C)c1ccccc1Oc1c(C(F)(F)F)oc2c(CN3CCN(C)CC3)c(O)ccc2c1=O [NCGC00100597] | 6.04 ± 1.9 µM | 0.63 ± 0.05 µM | – | – | – | 0.10 | – (Indicates compounds with less than 25% cytotoxicity at up to 46 µM) | – | – | –
CC(C)c1ccc(Nc2c(-c3ccccn3)nc3ccccn23)cc1 [NCGC00104490] | – | – | 1.29 ± 0.29 µM | 2.22 ± 0.35 µM | – | 1.72 | – | < 25% | – | –
COc1ccc(Nc2c(-c3ccccn3)nc3ccc(Cl)cn23)cc1 [NCGC00104528] | 8.91 ± 0.2 µM | 13.9 ± 0.93 µM | – | – | – | 1.56 | – (Indicates compounds with less than 25% cytotoxicity at up to 46 µM) | – | – | –
Cc1cccc2nc(-c3ccccn3)c(Nc3ccccc3)n12 [NCGC00106055] | 3.98 ± 1.12 µM | 4.18 ± 0.68 µM | – | – | – | 1.05 | – (Indicates compounds with less than 25% cytotoxicity at up to 46 µM) | – | – | –
Cc1ccc2nc(-c3ccccn3)c(Nc3ccccc3C)n2c1 [NCGC00106087] | 3.34 ± 0.51 µM | 7.49 ± 4.11 µM | – | – | – | 2.24 | – (Indicates compounds with less than 25% cytotoxicity at up to 46 µM) | – | – | –
Cc1ccc2nc(-c3ccccn3)c(Nc3ccc(F)cc3)n2c1 [NCGC00106091] | 2.45 ± 0.42 µM | 4.51 ± 1.29 µM | – | – | – | 1.84 | – (Indicates compounds with less than 25% cytotoxicity at up to 46 µM) | – | – | –
Cc1ccn2c(Nc3ccccc3C)c(-c3ccccn3)nc2c1 [NCGC00106119] | 2.82 ± 0.3 µM | 4.22 ± 0.29 µM | – | – | – | 1.50 | – (Indicates compounds with less than 25% cytotoxicity at up to 46 µM) | – | – | –
Cc1ccn2c(Nc3ccc(F)cc3)c(-c3ccccn3)nc2c1 [NCGC00106780] | – | – | 1.82 ± 0.11 µM | 3.53 ± 1.21 µM | – | 1.94 | – | < 25% | – | –
CN1CCN(c2nc3c(S(=O)(=O)c4ccc(Br)cc4)nnn3c3ccsc23)CC1 [NCGC00123034] | 35.2 ± 4.52 µM | 32.1 ± 12.6 µM | – | – | – | 0.92 | – (Indicates compounds with less than 25% cytotoxicity at up to 46 µM) | – | – | –

Further lines, with some results ahead:

IC50 [1] | IC50 [2] | IC50 ([1]; Plasmodium falciparum) | IC50 ([2]; Plasmodium falciparum) | ratio of IC50s, lower IC50 in gametocyte viability assay than in asexual parasite growth assay ([1]; asexual versus gametocyte) | SMILES | Asexual/Gametocyte [1] | HepG2, IC50 (dash = less than 25% cytotoxicity) (HepG2 cells) | cytotoxicity at 46 µM (HepG2 cells) | IC50 (HepG2 cells) | maximum response, HepG2 cytotoxicity (HepG2 cells)
4.82 ± 0.21 µM | 0.54 ± 0.05 µM | – | – | – | CCc1ccc(Oc2c(C(F)(F)F)oc3c(CN4CCN(CC)CC4)c(O)ccc3c2=O)cc1 [NCGC00101506] | 0.11 | – (Indicates compounds with less than 25% cytotoxicity at up to 46 µM) | – | – | –
– | 9.94 ± 0.93 µM | – | – | – | CCOc1ccccc1N(C)C(=O)Cn1cnc2sc(C)c(S(=O)(=O)N3CCC(C)CC3)c2c1=O [NCGC00104044] | 0.26 | – (Indicates compounds with less than 25% cytotoxicity at up to 46 µM) | – | – | –
10.6 ± 1.32 µM | 36.1 ± 15.2 µM | – | – | ~ fourfold | CCN(CC)CCCNC(=O)CSc1c2c(nc3cc(Cl)ccc13)CCCC2 [NCGC00110901] | 3.41 | – (Indicates compounds with less than 25% cytotoxicity at up to 46 µM) | – | – | –
~60 µM | 35.6 ± 1.77 µM | – | – | – | O=C(NCc1ccc(Cl)cc1)C1CCCN(C(=O)c2cnn(-c3ccc(F)cc3)c2-n2cccc2)C1 (centres unmarked) [NCGC00124960] | 0.59 | – (Indicates compounds with less than 25% cytotoxicity at up to 46 µM) | – | – | –
31.3 ± 12.8 µM | 7.49 ± 0.86 µM | – | – | – | CC(C)(C)OC(=O)N1CCC(c2c(C(=O)NCCN3CCC(Cc4ccccc4)CC3)cnn2-c2cccc(Cl)c2)CC1 [NCGC00126892] | 0.24 | – | – | 34.4 µM | 93.0%
30.6 ± 1.95 µM | 1.47 ± 0.04 µM | – | – | – | COc1ccc(CCN2CCC(CNC(=O)c3cnn(-c4ccccc4)c3C3CCN(C(=O)OC(C)(C)C)CC3)CC2)cc1 [NCGC00126987] | 0.05 | – | – | 38.6 ± 0.42 µM | 86.1%
